In article PMC8151276, “An Integrated Approach toward NanoBRET Tracers for Analysis of GPCR Ligand Engagement” (Molecules, 2021):

Experiments:
ADORA3 = target: T1, ADORA3 (Homo sapiens, UniProt P0DMS8); assay: NanoBRET screen HiBiT-ADORA3 in HEK293; assay type: binding
T1 construct: purchased Promega (in-house HiBiT-GPCR construct library, NanoBRET)
T1 sequence (P0DMS8 1-318): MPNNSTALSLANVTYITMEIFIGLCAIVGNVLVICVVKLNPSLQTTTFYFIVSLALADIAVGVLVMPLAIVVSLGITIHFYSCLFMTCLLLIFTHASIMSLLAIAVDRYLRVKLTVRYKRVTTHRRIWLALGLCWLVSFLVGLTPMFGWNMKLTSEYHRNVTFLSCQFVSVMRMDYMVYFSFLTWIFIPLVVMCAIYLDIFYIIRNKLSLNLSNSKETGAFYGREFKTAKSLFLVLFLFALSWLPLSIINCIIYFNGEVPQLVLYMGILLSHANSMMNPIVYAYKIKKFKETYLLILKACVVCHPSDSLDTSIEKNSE
Description: (§1) Each tracer candidate was screened across the entire library of HiBiT-GPCR constructs using NanoBRET as the detection modality. As depicted in Figure 4A, the specificity of interactions was evaluated through decrease in BRET due to competitive displacement of a bound tracer by excess parental compound. Each tracer was analyzed for binding to each HiBiT-GPCR fusion in the absence and in the presence of competing parental compound. Briefly, HEK293 cells were transfected with HiBiT-GPCR constructs diluted into promoterless DNA to reduce expression and maximize translocation to the cell surface. Each tracer candidate was then screened at concentrations of 1 μM and 0.1 μM across cells expressing these fusions. Cells were treated for 1.5 h with tracer either alone or in the presence of 20 μM competing parental compound (i.e., control). BRET was measured upon addition of purified LgBiT and subsequent complementation with HiBiT genetically fused to a GPCR. The specificity of interactions was assessed through a decrease in BRET signal due to competitive displacement of the bound tracer. To further gauge the robustness of these interactions, the fold response over the control (i.e., BRETtracer/BRETcontrol) was calculated. We chose a 1.5-fold response, which translates to ≥7-fold signal over noise as the minimal threshold required to score an interaction as positive. […]. Below we highlight the screening results obtained for our exemplary fluorescent tracers based on Clozapine, Amitriptyline and AZD1283.
(§2) HiBiT-GPCR DNA constructs were diluted in 10 mM Tris pH 8 to a final concentration of 0.01 μg/μL, arrayed in 96-well plates and stored at −20 °C. For transfection, HEK293 cells were suspended in Opti-MEM (without phenol red) supplemented with 2% fetal bovine serum (Seradigm) and 100 units/mL penicillin–streptomycin (Gibco) at a final concentration of 220,000 cells/mL and dispensed into white 96-well plates at 90 μL/well. Subsequent transfections and screens were carried using an Agilent Bravo Automated Liquid Handling Platform. First, the 96-well HiBiT DNA arrays were diluted 25-fold in Opti-MEM (without serum or phenol red) to a final concentration of 0.0004 μg/μL and 20 μL of the diluted DNAs were transferred into new 96-well plates. Next, promoterless carrier DNA (1 μg/μL) was diluted 25-fold (0.04 μg/μL) and then dispensed into the diluted arrays at 20 μL/well. Following brief mixing, Viafect transfection reagent (Promega) diluted 16-fold into Opti-MEM was dispensed into the plates at 40 μL/well. After mixing by pipetting, plates were incubated for 10 min on the pipetting station deck. The DNA-transfection reagent complexes were then added to plates containing cells. To facilitate the screen, 10 μL of DNA-transfection reagent complexes were added in duplicates to the top 4 and bottom 4 rows, resulting in two identical 48-well arrays per plate. Plates with transfected cells were incubated for 18–20 h at 37 °C/5% CO2. A screen of each tracer across the entire library using two different concentrations requires duplicate plates of transfected cells. Depending on the number of tracers being screened, transfections can be scaled up using the same ratios. The next day, for each tracer, four 20× screening solutions in tracer dilution buffer (Promega) were prepared: two duplicates at final concentration of 20 μM and two duplicates at a final concentration of 2 μM. A competing unmodified compound was added to one of each duplicate at a final concentration of 400 μM. The four resulting solutions were diluted 4-fold in Opti-MEM without serum or phenol red to generate 5× solutions (5 µM and 0.5 µM tracer +/− 100 μM competing compound). To screen the library, a BioTek MultiFlo FX liquid dispenser was used to dispense 22.5 µL of tracer solution to the top 4 rows and 22.5 µL tracer + competing compound solution to the 4 bottom rows. Plates were briefly mixed on an orbital shaker and incubated for 1.5 h at room temperature. […]

FZD9 = target: T2, FZD9 (Homo sapiens, UniProt O00144); assay: NanoBRET screen HiBiT-FZD9 in HEK293; assay type: binding
T2 construct: purchased Promega (in-house HiBiT-GPCR construct library, NanoBRET)
T2 sequence (O00144 23-591): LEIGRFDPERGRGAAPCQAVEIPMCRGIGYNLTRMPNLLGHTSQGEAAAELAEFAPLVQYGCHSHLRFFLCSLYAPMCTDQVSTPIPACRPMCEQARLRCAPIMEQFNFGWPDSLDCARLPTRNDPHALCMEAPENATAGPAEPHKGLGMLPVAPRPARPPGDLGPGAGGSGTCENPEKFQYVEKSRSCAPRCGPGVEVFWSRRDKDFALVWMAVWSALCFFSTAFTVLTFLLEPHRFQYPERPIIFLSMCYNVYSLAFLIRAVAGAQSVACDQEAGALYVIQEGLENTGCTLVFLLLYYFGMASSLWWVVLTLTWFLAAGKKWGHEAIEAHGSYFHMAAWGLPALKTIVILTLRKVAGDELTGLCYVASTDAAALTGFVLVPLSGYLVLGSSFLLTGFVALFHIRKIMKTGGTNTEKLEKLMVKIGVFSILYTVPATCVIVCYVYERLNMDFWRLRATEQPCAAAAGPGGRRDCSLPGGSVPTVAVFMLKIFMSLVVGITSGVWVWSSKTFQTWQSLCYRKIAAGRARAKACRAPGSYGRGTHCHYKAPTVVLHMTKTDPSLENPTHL
Description: as §1, §2

[1] = tracer at 0.1μM, listed as amitriptyline-b-2-NB590
[2] = tracer at 1μM, listed as amitriptyline-b-2-NB590

CCOC(=O)c1cc(C#N)c(N2CCC(C(=O)NS(=O)(=O)Cc3ccccc3/C=C/C(=O)NCCNC(=O)CCc3ccc4n3[B-](F)(F)[N+]3=C(c5ccc[nH]5)C=CC3=C4)CC2)nc1C [AZD1283-1-NB590]
NanoBRET Fold Response (ADORA3; ADORA3, 0.1μM): 1.11
NanoBRET Fold Response (ADORA3; ADORA3, 1μM): 1.09
NanoBRET Fold Response (FZD9; FZD9, 0.1μM): 1.05
NanoBRET Fold Response (FZD9; FZD9, 1μM): 1.02

N#CN=C(NCCCOc1cccc(CN2CCCCC2)c1)NCCNC(=O)CCOCCOCCOCCOCCNC(=O)CCc1ccc2n1[B-](F)(F)[N+]1=C(c3ccc[nH]3)C=CC1=C2 [Aminopotentidine-2-NB590]
NanoBRET Fold Response (ADORA3; ADORA3, tracer 0.1μM): 1.16
NanoBRET Fold Response (ADORA3; ADORA3, tracer 1μM): 1.03
NanoBRET Fold Response (FZD9; FZD9, tracer 0.1μM): 1.08
NanoBRET Fold Response (FZD9; FZD9, tracer 1μM): 1.01

CN(C)CCC=C1c2ccccc2CCc2ccc(C(=O)NCCNC(=O)CCOCCOCCOCCOCCNC(=O)CCc3ccc4n3[B-](F)(F)[N+]3=C(c5ccc[nH]5)C=CC3=C4)cc21 [Amitriptyline-a-2-NB590]
NanoBRET Fold Response (ADORA3; tracer at 0.1μM): 1.00
NanoBRET Fold Response (ADORA3; tracer at 1μM): 1.07
NanoBRET Fold Response (FZD9; tracer at 0.1μM): 0.96
NanoBRET Fold Response (FZD9; tracer at 1μM): 1.07

CN(C)CCC=C1c2ccccc2CCc2ccc(C(=O)NCCNC(=O)CCOCCOCCOCCOCCNC(=O)CCc3ccc4n3[B-](F)(F)[N+]3=C(c5ccc[nH]5)C=CC3=C4)cc21 [Amitriptyline-b-2-NB590]
NanoBRET Fold Response (ADORA3; [1]): 0.87
NanoBRET Fold Response (ADORA3; [2]): 0.66
NanoBRET Fold Response (FZD9; [1]): 1.04
NanoBRET Fold Response (FZD9; [2]): 1.11

CN(CCC=C1c2ccccc2CCc2ccccc21)C(=O)CCOCCOCCOCCOCCNC(=O)CCc1ccc2n1[B-](F)(F)[N+]1=C(c3ccc[nH]3)C=CC1=C2 [Amitriptyline-e-2-NB590]
NanoBRET Fold Response (ADORA3; tracer at 1μM): 0.99

COc1ccc2c(n1)c(CCNC(C)=O)cn2CCNC(=O)CCc1ccc2n1[B-](F)(F)[N+]1=C(c3ccc[nH]3)C=CC1=C2 [Azamelatonin-1-NB590]
NanoBRET Fold Response (ADORA3; 0.1μM tracer): 1.01
NanoBRET Fold Response (ADORA3; 1μM tracer): 1.02
NanoBRET Fold Response (FZD9; 0.1μM tracer): 1.17
NanoBRET Fold Response (FZD9; 1μM tracer): 1.15

COc1ccc2[nH]c(-c3ccc(CNC(=O)CCOCCOCCOCCOCCNC(=O)CCc4ccc5n4[B-](F)(F)[N+]4=C(c6ccc[nH]6)C=CC4=C5)cc3)c(CCNC(C)=O)c2n1 [AzomelatoninICO9-2-NB590]
NanoBRET Fold Response (ADORA3; 0.1μM tracer): 0.91
NanoBRET Fold Response (ADORA3; 1μM tracer): 0.97
NanoBRET Fold Response (FZD9; 0.1μM tracer): 1.30
NanoBRET Fold Response (FZD9; 1μM tracer): 0.94

O=C(CCOCCOCCOCCOCCNC(=O)CCc1ccc2n1[B-](F)(F)[N+]1=C(c3ccc[nH]3)C=CC1=C2)NCCCN1CCN(C2=Nc3cc(Cl)ccc3Nc3ccccc32)CC1 [Clozapine-a-2-NB590]
NanoBRET Fold Response (ADORA3; ADORA3, 0.1μM tracer): 1.04
NanoBRET Fold Response (ADORA3; ADORA3, 1μM tracer): 0.83
NanoBRET Fold Response (FZD9; FZD9, 0.1μM tracer): 1.00
NanoBRET Fold Response (FZD9; FZD9, 1μM tracer): 1.39
